{
  "source": "paper PMC6017631",
  "about": "“The Effect of Combining Natural Terpenes and Antituberculous Agents against Reference and Clinical Mycobacterium tuberculosis Strains” (Molecules : A Journal of Synthetic Chemistry and Natural …, 2018)",
  "key": {"[1]": {"test_system": "M. tuberculosis H37Rv", "conditions": "H37Rv and some Mtb drug-resistant clinical isolates ref 2, 60, 61, cited from earlier work"}, "[2]": {"test_system": "clinical isolate 12331 (IRE resistant)", "experiment": "microbe, parasite or virus in culture", "format": "cell-based, Mycobacterium tuberculosis"}, "[3]": {"test_system": "clinical isolate 85/13 (Beijing, SIRE resistant)", "experiment": "microbe, parasite or virus in culture", "format": "cell-based, Mycobacterium tuberculosis"}, "[4]": {"test_system": "clinical isolate 126 (INH resistant)", "experiment": "microbe, parasite or virus in culture", "format": "cell-based, Mycobacterium tuberculosis"}, "[5]": {"conditions": "compounds tested separately, 12331"}, "[6]": {"conditions": "compounds tested separately, 85/13"}, "[7]": {"conditions": "compounds tested separately, 126"}, "[8]": {"conditions": "Mycobacterium tuberculosis, read-out: MIC for EMB in a Presence of Terpenes"}, "[9]": {"conditions": "Mycobacterium tuberculosis, read-out: MIC for INH in a Presence of Terpenes"}, "[10]": {"conditions": "Mycobacterium tuberculosis, read-out: MIC for RMP in a Presence of Terpenes"}},
  "note": "Like-named read-outs stand apart in the source and are kept apart here.",
  "data": [
    {"compound": "Cc1cc(O)c2c(c1)C(=O)C=CC2=O", "note": "[7-methyljuglone]", "values": [
      {"measurement": "FICI", "setting": "[1]; in combination with isoniazid", "value": 0.2},
      {"measurement": "FICI", "setting": "[1]; with rifampicin", "value": 0.5}
    ]},
    {"compound": "C=C(C)[C@H]1CC=C(C)CC1", "note": "[(R)-limonene]", "values": [
      {"measurement": "MIC", "setting": "[2]; [5]", "value": 128, "unit": "µg/mL"},
      {"measurement": "MIC", "setting": "[3]; [6]", "value": 256, "unit": "µg/mL"},
      {"measurement": "MIC", "setting": "[4]; [7]", "value": 128, "unit": "µg/mL"}
    ]},
    {"compound": "CC[C@@H](CO)NCCN[C@@H](CC)CO", "note": "[EMB, ethambutol, reference compound]", "values": [
      {"measurement": "MIC", "setting": "[2]; Mycobacterium tuberculosis", "value": 16, "unit": "µg/mL"},
      {"measurement": "MIC", "setting": "[3]; Mycobacterium tuberculosis", "value": 16, "unit": "µg/mL"},
      {"measurement": "MIC", "setting": "[4]; Mycobacterium tuberculosis", "value": 0.25, "unit": "µg/mL"}
    ]},
    {"compound": "NNC(=O)c1ccncc1", "note": "[INH, isoniazid, reference compound]", "values": [
      {"measurement": "MIC", "setting": "[2]; Mycobacterium tuberculosis", "value": 16, "unit": "µg/mL"},
      {"measurement": "MIC", "setting": "[3]; Mycobacterium tuberculosis", "value": 16, "unit": "µg/mL"},
      {"measurement": "MIC", "setting": "[4]; Mycobacterium tuberculosis", "value": 0.5, "unit": "µg/mL"}
    ]},
    {"compound": "CO[C@H]1/C=C/O[C@@]2(C)Oc3c(C)c(O)c4c(O)c(c(/C=N/N5CCN(C)CC5)c(O)c4c3C2=O)NC(=O)/C(C)=C\\C=C\\[C@H](C)[C@H](O)[C@@H](C)[C@@H](O)[C@@H](C)[C@H](OC(C)=O)[C@@H]1C", "note": "[RMP, rifampicin, reference compound]", "values": [
      {"measurement": "MIC", "setting": "[2]; Mycobacterium tuberculosis", "value": 256, "unit": "µg/mL"},
      {"measurement": "MIC", "setting": "[3]; Mycobacterium tuberculosis", "value": 128, "unit": "µg/mL"},
      {"measurement": "MIC", "setting": "[4]; Mycobacterium tuberculosis", "value": 0.25, "unit": "µg/mL"}
    ]},
    {"compound": "CC(C)=CCC[C@](C)(O)C1CC=C(C)CC1", "note": "(stereo partly shown) [bisabolol]", "values": [
      {"measurement": "MIC", "setting": "[2]; [5]", "value": 256, "unit": "µg/mL"},
      {"measurement": "MIC", "setting": "[3]; [6]", "value": 128, "unit": "µg/mL"},
      {"measurement": "MIC", "setting": "[4]; [7]", "value": 32, "unit": "µg/mL"}
    ]},
    {"compound": "C=CC(=C)CCC=C(C)C", "note": "[myrcene]", "values": [
      {"measurement": "MIC", "setting": "[2]; Mycobacterium tuberculosis", "value": 512, "unit": "µg/mL"},
      {"measurement": "MIC", "setting": "[2]; [8]", "value": 16, "unit": "µg/mL"},
      {"measurement": "MIC", "setting": "[2]; [9]", "value": 16, "unit": "µg/mL"},
      {"measurement": "MIC", "setting": "[2]; [10]", "value": 256, "unit": "µg/mL"},
      {"measurement": "MIC", "setting": "[3]; Mycobacterium tuberculosis", "value": "> 512", "unit": "µg/mL"},
      {"measurement": "MIC", "setting": "[3]; [8]", "value": 16, "unit": "µg/mL"},
      {"measurement": "MIC", "setting": "[3]; [9]", "value": 16, "unit": "µg/mL"},
      {"measurement": "MIC", "setting": "[3]; [10]", "value": 128, "unit": "µg/mL"},
      {"measurement": "MIC", "setting": "[4]; Mycobacterium tuberculosis", "value": 256, "unit": "µg/mL"},
      {"measurement": "MIC", "setting": "[4]; [8]", "value": 0.25, "unit": "µg/mL"},
      {"measurement": "MIC", "setting": "[4]; [9]", "value": 0.5, "unit": "µg/mL"},
      {"measurement": "MIC", "setting": "[4]; [10]", "value": 0.25, "unit": "µg/mL"}
    ]},
    {"compound": "CCCCCCCC/C=C\\CCCCCCCC(=O)O", "note": "[oleic acid]", "values": [
      {"measurement": "FICI", "setting": "[1]; in combination with isoniazid, rifampicin and ethambutol", "value": "0.09–0.36"}
    ]},
    {"compound": "C=C1CCC2(C(C)C)CC12", "note": "(stereo not shown) [sabinene]", "values": [
      {"measurement": "MIC", "setting": "[2]; Mycobacterium tuberculosis", "value": "> 512", "unit": "µg/mL"},
      {"measurement": "MIC", "setting": "[2]; [8]", "value": 16, "unit": "µg/mL"},
      {"measurement": "MIC", "setting": "[2]; [9]", "value": 16, "unit": "µg/mL"},
      {"measurement": "MIC", "setting": "[2]; [10]", "value": 256, "unit": "µg/mL"},
      {"measurement": "MIC", "setting": "[3]; Mycobacterium tuberculosis", "value": 512, "unit": "µg/mL"},
      {"measurement": "MIC", "setting": "[3]; [8]", "value": 16, "unit": "µg/mL"},
      {"measurement": "MIC", "setting": "[3]; [9]", "value": 16, "unit": "µg/mL"},
      {"measurement": "MIC", "setting": "[3]; [10]", "value": 128, "unit": "µg/mL"},
      {"measurement": "MIC", "setting": "[4]; Mycobacterium tuberculosis", "value": 128, "unit": "µg/mL"},
      {"measurement": "MIC", "setting": "[4]; [8]", "value": 0.25, "unit": "µg/mL"},
      {"measurement": "MIC", "setting": "[4]; [9]", "value": 0.5, "unit": "µg/mL"},
      {"measurement": "MIC", "setting": "[4]; [10]", "value": 0.25, "unit": "µg/mL"}
    ]},
    {"compound": "CC(=O)c1c(O)c(C)c(O)c2c1OC1=CC(=O)C(C(C)=O)C(=O)C12C", "note": "(stereo not shown) [usnic acid]", "values": [
      {"measurement": "FICI", "setting": "[1]; with rifampicin", "value": "0.25–0.38"}
    ]},
    {"compound": "CC1=CCC2CC1C2(C)C", "note": "(stereo not drawn) [α-pinene]", "values": [
      {"measurement": "MIC", "setting": "[2]; Mycobacterium tuberculosis", "value": "> 512", "unit": "µg/mL"},
      {"measurement": "MIC", "setting": "[2]; [8]", "value": 16, "unit": "µg/mL"},
      {"measurement": "MIC", "setting": "[2]; [9]", "value": 16, "unit": "µg/mL"},
      {"measurement": "MIC", "setting": "[2]; [10]", "value": 256, "unit": "µg/mL"},
      {"measurement": "MIC", "setting": "[3]; Mycobacterium tuberculosis", "value": 512, "unit": "µg/mL"},
      {"measurement": "MIC", "setting": "[3]; [8]", "value": 16, "unit": "µg/mL"},
      {"measurement": "MIC", "setting": "[3]; [9]", "value": 16, "unit": "µg/mL"},
      {"measurement": "MIC", "setting": "[3]; [10]", "value": 128, "unit": "µg/mL"},
      {"measurement": "MIC", "setting": "[4]; Mycobacterium tuberculosis", "value": 128, "unit": "µg/mL"},
      {"measurement": "MIC", "setting": "[4]; [8]", "value": 0.25, "unit": "µg/mL"},
      {"measurement": "MIC", "setting": "[4]; [9]", "value": 0.5, "unit": "µg/mL"},
      {"measurement": "MIC", "setting": "[4]; [10]", "value": 0.25, "unit": "µg/mL"}
    ]},
    {"compound": "C=C[C@]1(C)CC[C@@H](C(=C)C)C[C@H]1C(=C)C", "note": "[β-elemene]", "values": [
      {"measurement": "MIC", "setting": "[2]; [5]", "value": 256, "unit": "µg/mL"},
      {"measurement": "MIC", "setting": "[3]; [6]", "value": ">512", "unit": "µg/mL"},
      {"measurement": "MIC", "setting": "[4]; [7]", "value": 256, "unit": "µg/mL"}
    ]},
    {"compound": "(S)-limonene", "values": [
      {"measurement": "MIC", "setting": "[2]; [5]", "value": 512, "unit": "µg/mL"},
      {"measurement": "MIC", "setting": "[3]; [6]", "value": ">512", "unit": "µg/mL"},
      {"measurement": "MIC", "setting": "[4]; [7]", "value": 256, "unit": "µg/mL"}
    ]}
  ]
}
